Structures can show the parent of a compound that is named as a salt. Some results are limits rather than exact numbers.

Experiment [1] concerns the target T1, human histamine H4 receptor (Homo sapiens, UniProt Q9H3N8).
T1 construct: purchased PerkinElmer Inc; host or cells: CHO-K1
Put plainly: Evaluation of Human H4 Receptor Affinity ([3H]histamine binding). The following applies: inhibition constant Ki, CHO-K1 membrane preparation, read-out: Evaluation of H4 Receptor Affinity. In a few lines:
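Radioligand displacement: compound competes with 8.2 nM [3H]histamine at recombinant human H4 receptor in CHO-K1 membranes (Tris-HCl 50 mM pH 7.4, EDTA 1.25 mM; 25 °C, 90 min), with filter-bound radioactivity counted. IC50 was converted to Ki via Cheng-Prusoff (Kd 5.7 nM); 1.0 μM histamine set nonspecific binding.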

Experiment [2] addresses human histamine H1 receptor (Homo sapiens, UniProt P35367). Put plainly: Evaluation of Human H1 Receptor Affinity ([3H]pyrilamine binding). Details: purchased PerkinElmer Inc; host or cells: CHO-K1. As to conditions: inhibition constant Ki, CHO-K1 membrane preparation. In a few lines:
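Ki values are Cheng-Prusoff conversions of IC50 (Kd 1.1 nM) from radioligand displacement of 1.2 nM [3H]pyrilamine, with 1.0 μM pyrilamine defining nonspecific binding.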

T1 sequence (Q9H3N8 whole entry): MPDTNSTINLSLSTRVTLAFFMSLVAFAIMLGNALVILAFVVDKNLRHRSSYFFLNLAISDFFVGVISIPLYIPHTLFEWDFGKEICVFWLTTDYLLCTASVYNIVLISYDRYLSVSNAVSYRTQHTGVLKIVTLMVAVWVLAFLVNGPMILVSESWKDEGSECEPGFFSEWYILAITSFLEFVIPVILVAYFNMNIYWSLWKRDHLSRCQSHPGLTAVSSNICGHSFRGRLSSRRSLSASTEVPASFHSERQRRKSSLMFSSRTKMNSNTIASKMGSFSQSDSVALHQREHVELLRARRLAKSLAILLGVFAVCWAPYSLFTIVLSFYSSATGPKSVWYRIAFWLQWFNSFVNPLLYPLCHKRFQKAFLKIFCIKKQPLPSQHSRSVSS
human histamine H1 receptor, sequence (P35367 whole entry): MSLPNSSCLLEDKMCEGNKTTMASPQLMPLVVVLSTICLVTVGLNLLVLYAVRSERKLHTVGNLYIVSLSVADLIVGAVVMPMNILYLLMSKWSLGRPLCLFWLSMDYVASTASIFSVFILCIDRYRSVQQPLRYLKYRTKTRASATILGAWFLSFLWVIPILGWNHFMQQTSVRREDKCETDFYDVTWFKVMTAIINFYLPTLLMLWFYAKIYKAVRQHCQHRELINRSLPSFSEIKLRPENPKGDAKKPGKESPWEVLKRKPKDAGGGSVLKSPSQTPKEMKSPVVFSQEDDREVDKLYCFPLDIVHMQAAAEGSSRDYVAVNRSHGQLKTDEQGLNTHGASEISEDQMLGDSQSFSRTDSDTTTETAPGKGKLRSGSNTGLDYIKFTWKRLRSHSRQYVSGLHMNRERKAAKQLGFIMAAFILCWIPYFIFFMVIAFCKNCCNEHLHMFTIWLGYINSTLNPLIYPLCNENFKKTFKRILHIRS

On to `CN(C)[C@@H]1CCN(c2nc(N)nc3c2CCc2cc(OCc4ccccc4)ccc2-3)C1` [Example 103, (R)-8-(benzyloxy)-4-(3-(dimethylamino)pyrrolidin-1-yl)-5,6-dihydrobenzo[h]quinazolin-2-amine], for which the Ki in experiment [1] was less than 100 nM; in experiment [2], 100 to 500 nM.

With `CN(C)C1CCN(c2nc(N)nc3c2CCc2cc(OCc4ccccc4)ccc2-3)CC1` [Example 104, 8-(benzyloxy)-4-(4-(dimethylamino)piperidin-1-yl)-5,6-dihydrobenzo[h]quinazolin-2-amine], the Ki in experiment [1] is less than 100 nM; in experiment [2], 100 to 500 nM.

On to `CCS(=O)(=O)NCCCCN1CCN(c2nc(N)nc3c2CCc2cc(OCc4ccccc4)ccc2-3)CC1` [Example 105, N-(4-(4-(2-amino-8-(benzyloxy)-5,6-dihydrobenzo[h]quinazolin-4-yl)piperazin-1-yl)butyl)ethanesulfonamide bis(trifluoroacetate)], for which the Ki in experiment [1] is 100 to 500 nM; in experiment [2], less than 100 nM.

For `CN1CCN(c2nc(N)nc3c2CCc2cc(OCc4ccccc4)ccc2-3)CC1CO` (centres unmarked) [Example 106, (4-(2-amino-8-(benzyloxy)-5,6-dihydrobenzo[h]quinazolin-4-yl)-1-methylpiperazin-2-yl)methanol], the Ki in experiment [1] and in experiment [2] was 100 to 500 nM throughout.

For `CCS(=O)(=O)CCCN1CCN(c2nc(N)nc3c2CCc2cc(OCc4ccccc4)ccc2-3)CC1` [Example 107, 8-(benzyloxy)-4-(4-(3-(ethylsulfonyl)propyl)piperazin-1-yl)-5,6-dihydrobenzo[h]quinazolin-2-amine], the Ki in experiment [1] was 100 to 500 nM; in experiment [2], less than 100 nM.

As to `CNC(=O)COCCOCCN1CCN(c2nc(N)nc3c2CCc2cc(OCc4ccccc4)ccc2-3)CC1` [Example 108, 2-(2-(2-(4-(2-amino-8-(benzyloxy)-5,6-dihydrobenzo[h]quinazolin-4-yl)piperazin-1-yl)ethoxy)ethoxy)-N-methylacetamide], the Ki in experiment [1] and in experiment [2] was less than 100 nM in each case.

For `NC(=O)COCCOCCN1CCN(c2nc(N)nc3c2CCc2cc(OCc4ccccc4)ccc2-3)CC1` [Example 109, 2-(2-(2-(4-(2-amino-8-(benzyloxy)-5,6-dihydrobenzo[h]quinazolin-4-yl)piperazin-1-yl)ethoxy)ethoxy)acetamide], the Ki in experiment [1] is 100 to 500 nM; in experiment [2], less than 100 nM.

Regarding `CS(=O)(=O)NCCOCCOCCN1CCN(c2nc(N)nc3c2CCc2cc(OCc4ccccc4)ccc2-3)CC1` [Example 110, N-(2-(2-(2-(4-(2-amino-8-(benzyloxy)-5,6-dihydrobenzo[h]quinazolin-4-yl)piperazin-1-yl)ethoxy)ethoxy)ethyl)methanesulfonamide dihydrochloride], the Ki in experiment [1] and in experiment [2] was less than 100 nM throughout.

With `Nc1nc2c(c(N3CCN(CCOCCOCCN4C(=O)c5ccccc5C4=O)CC3)n1)CCc1cc(OCc3ccc(Cl)cc3)ccc1-2` [Example 112, 2-(2-(2-(2-(4-(2-amino-8-((4-chlorobenzyl)oxy)-5,6-dihydrobenzo[h]quinazolin-4-yl)piperazin-1-yl)ethoxy)ethoxy)ethyl)isoindoline-1,3-dione], the Ki is 100 to 500 nM in experiment [1] and less than 100 nM in experiment [2].

With `COC(=O)COCCN1CCN(c2nc(N)nc3c2CCc2cc(OCc4ccc(Cl)cc4)ccc2-3)CC1` [Example 113, methyl 2-(2-(4-(2-amino-8-((4-chlorobenzyl)oxy)-5,6-dihydrobenzo[h]quinazolin-4-yl)piperazin-1-yl)ethoxy)acetate], the Ki in experiment [1] and in experiment [2] was less than 100 nM throughout.

For the compound `CCS(=O)(=O)CCCN1CCN(c2nc(N)nc3c2CCc2cc(OCc4ccc(Cl)cc4)ccc2-3)CC1` [Example 114, 8-((4-chlorobenzyl)oxy)-4-(4-(3-(ethylsulfonyl)propyl)piperazin-1-yl)-5,6-dihydrobenzo[h]quinazolin-2-amine], the Ki in experiment [1] was 100 to 500 nM; in experiment [2], less than 100 nM.

Consider `Nc1nc2c(c(N3CCN(CCOCCOc4nnn[nH]4)CC3)n1)CCc1cc(OCc3ccc(Cl)cc3)ccc1-2` [Example 115, 4-(4-(2-(2-((tetrazol-5-yl)oxy)ethoxy)ethyl)piperazin-1-yl)-8-((4-chlorobenzyl)oxy)-5,6-dihydrobenzo[h]quinazolin-2-amine dihydrochloride], for which the Ki in experiment [1] was 100 to 500 nM; in experiment [2] it was less than 100 nM.

With `Nc1nc2c(c(N3CCN(CCOCc4cc(OCc5ccccc5)no4)CC3)n1)CCc1cc(OCc3ccc(Cl)cc3)ccc1-2` [Example 116, 4-(4-(2-((3-(benzyloxy)isoxazol-5-yl)methoxy)ethyl)piperazin-1-yl)-8-((4-chlorobenzyl)oxy)-5,6-dihydrobenzo[h]quinazolin-2-amine], the Ki in experiment [1] is 100 to 500 nM; in experiment [2] it was less than 100 nM.

As for `COC(=O)C1CN(C(=O)CCCN2CCN(c3nc(N)nc4c3CCc3cc(OCc5ccc(Cl)cc5)ccc3-4)CC2)C1` [Example 117, methyl 1-(4-(4-(2-amino-8-((4-chlorobenzyl)oxy)-5,6-dihydrobenzo[h]quinazolin-4-yl)piperazin-1-yl)butanoyl)azetidine-3-carboxylate], the Ki was less than 100 nM in experiment [1] and 100 to 500 nM in experiment [2].

For the compound `NCCOCCOCCN1CCN(c2nc(N)nc3c2CCc2cc(OCc4ccc(Cl)cc4)ccc2-3)CC1` [Example 118, 4-(4-(2-(2-(2-aminoethoxy)ethoxy)ethyl)piperazin-1-yl)-8-((4-chlorobenzyl)oxy)-5,6-dihydrobenzo[h]quinazolin-2-amine], the Ki in experiment [1] and in experiment [2] was less than 100 nM each time.

In the case of `Nc1nc2c(c(N3CCN(CCOCCOCC(=O)O)CC3)n1)CCc1cc(OCc3ccccc3)ccc1-2` [Example 119, 2-(2-(2-(4-(2-amino-8-(benzyloxy)-5,6-dihydrobenzo[h]quinazolin-4-yl)piperazin-1-yl)ethoxy)ethoxy)acetic acid bis(trifluoroacetate)], the Ki is 100 to 500 nM in experiment [1] and less than 100 nM in experiment [2].

With `Nc1nc2c(c(N3CCN(CCCCCOCC(=O)O)CC3)n1)CCc1cc(OCc3ccccc3)ccc1-2` [Example 120, 2-((5-(4-(2-amino-8-(benzyloxy)-5,6-dihydrobenzo[h]quinazolin-4-yl)piperazin-1-yl)pentyl)oxy)acetic acid], the Ki in experiment [1] and in experiment [2] was less than 100 nM in each case.

Regarding `CC(OCCOCCN1CCN(c2nc(N)nc3c2CCc2cc(OCc4ccc(Cl)cc4)ccc2-3)CC1)C(=O)O` (centres unmarked) [Example 121, 2-(2-(2-(4-(2-amino-8-((4-chlorobenzyl)oxy)-5,6-dihydrobenzo[h]quinazolin-4-yl)piperazin-1-yl)ethoxy)ethoxy)propanoic acid dihydrochloride], the Ki is 100 to 500 nM in experiment [1] and less than 100 nM in experiment [2].

With `CC(OCCCCN1CCN(c2nc(N)nc3c2CCc2cc(OCc4ccc(Cl)cc4)ccc2-3)CC1)C(=O)O` (centres unmarked) [Example 123, 2-(4-(4-(2-amino-8-((4-chlorobenzyl)oxy)-5,6-dihydrobenzo[h]quinazolin-4-yl)piperazin-1-yl)butoxy)propanoic acid], the Ki was 100 to 500 nM in experiment [1] and less than 100 nM in experiment [2].

As to `Nc1nc2c(c(N3CCN(CCOCCOCC(=O)O)CC3)n1)CCc1cc(OCc3ccc(F)cc3)ccc1-2` [Example 124, 2-(2-(2-(4-(2-amino-8-((4-fluorobenzyl)oxy)-5,6-dihydrobenzo[h]quinazolin-4-yl)piperazin-1-yl)ethoxy)ethoxy)acetic acid], the Ki in experiment [1] and in experiment [2] was less than 100 nM in each case.

For the compound `Nc1nc2c(c(N3CCN(CC(=O)NCCCC(=O)O)CC3)n1)CCc1cc(OCc3ccc(Cl)cc3)ccc1-2` [Example 125, 4-(2-(4-(2-amino-8-((4-chlorobenzyl)oxy)-5,6-dihydrobenzo[h]quinazolin-4-yl)piperazin-1-yl)acetamido)butanoic acid dihydrochloride], the Ki is 100 to 500 nM in experiment [1] and less than 100 nM in experiment [2].

`CCC(OCCOCCN1CCN(c2nc(N)nc3c2CCc2cc(OCc4ccc(Cl)cc4)ccc2-3)CC1)C(=O)O` (centres unmarked) [Example 126, 2-(2-(2-(4-(2-amino-8-((4-chlorobenzyl)oxy)-5,6-dihydrobenzo[h]quinazolin-4-yl)piperazin-1-yl)ethoxy)ethoxy)butanoic acid]: the Ki in experiment [1] and in experiment [2] was less than 100 nM in each case.

Consider `Nc1nc2c(c(N3CCN(CCOc4cccc(CC(=O)O)c4)CC3)n1)CCc1cc(OCc3ccc(Cl)cc3)ccc1-2` [Example 130, 2-(3-(2-(4-(2-amino-8-((4-chlorobenzyl)oxy)-5,6-dihydrobenzo[h]quinazolin-4-yl)piperazin-1-yl)ethoxy)phenyl)acetic acid], for which the Ki in experiment [1] was 100 to 500 nM; in experiment [2], less than 100 nM.

For the compound `Nc1nc2c(c(N3CCN(CCCCn4cc(C(=O)O)cn4)CC3)n1)CCc1cc(OCc3ccc(Cl)cc3)ccc1-2` [Example 132, 1-(4-(4-(2-amino-8-((4-chlorobenzyl)oxy)-5,6-dihydrobenzo[h]quinazolin-4-yl)piperazin-1-yl)butyl)-1H-pyrazole-4-carboxylic acid dihydrochloride], the Ki in experiment [1] was 100 to 500 nM; in experiment [2] it was less than 100 nM.

Turning to `Nc1nc2c(c(N3CCN(CCOCCn4cc(C(=O)O)cn4)CC3)n1)CCc1cc(OCc3ccc(Cl)cc3)ccc1-2` [Example 133, 1-(2-(2-(4-(2-amino-8-((4-chlorobenzyl)oxy)-5,6-dihydrobenzo[h]quinazolin-4-yl)piperazin-1-yl)ethoxy)ethyl)-1H-pyrazole-4-carboxylic acid dihydrochloride], the Ki in experiment [1] and in experiment [2] was less than 100 nM in each case.

The record behind these values is US20190047966A1, “NOVEL COMPOUND AND PHARMACOLOGICALLY ACCEPTABLE SALT THEREOF” (MEIJI SEIKA PHARMA CO., LTD., priority 2016, published 2019).
